Measurements taken from US12251449B2, “Synthetic multidomain peptide biomaterials that inhibit inducible nitric oxide synthase” (William Marsh Rice University, priority 2019, dated 2025).
*1 amine or outer side, *2 acyl side, *3 side chain or, on linkers, in order; H or OH if unused. Where a SMILES comes first, the peptide text is derived from it. [ ]: non-standard residue; d: D form. X1 = CC(=N)NCCCC[C@H](N[*:1])C(=O)[*:2]

How the values were obtained:
RAW 264.7 cells = test: Live-dead viability of RAW 264.7 cells on MDP hydrogels; format: cell-based, mouse; details: RAW macrophages on 1 wt. % hydrogel, one to three days
Description: (§1) Cell culture. For in vitro experiments, mouse RAW 264.7 cells (ATCC TIB-71) were grown in DMEM media supplemented with 10% Heat-Inactivated Fetal Bovine Serum (HI-FBS), L-glutamine, sodium pyruvate, and 1% penicillin-streptomycin. Cells were cultured at 37° C. with 5% CO2 and subcultured using scraping.
(§2) For 2-D culture live-dead viability studies, peptide hydrogels were pipetted into 0.4 cm^2 wells of Lab-Tek 16 well glass chamber slides (Thermo Fischer, Rochester, NY). Gels were pipetted to produce 70 μL pucks with a thickness of 1.75 mm. The gels were carefully pipetted into the bottom of each well and tapped before shear recovery to create flat gel profiles. After pipetting, the samples were allowed to shear recover for 5-10 min before adding 200 μL cell media and 10,000 RAW 264.7 cells. For each experiment time point (days 1 and 3) separate slides with duplicate gels were created. The cell media was changed every 2 days, taking care to not disturb or dislodge the gel material.
(§3) At each desired time point the following procedure was used to stain the cells for live-dead analysis. Live-dead staining solution was prepared in DPBS (Thermo Fisher Scientific, Rockford, IL) with 2 μM Calcein AM (Life Technologies), 4 μM Ethidium homodimer (Life Technologies), and 5 μg/mL Hoechst 33342 (BD Biosciences, San Jose, CA). Cell media was removed from the top of the hydrogel samples, which were then washed with PBS. Samples were then stained with 100 μL of prepared solution by incubating at 37° C. with 5% CO2 for 60 min while protected from light. After staining, the gels were removed from the glass chamber slides and placed in PBS before immediately imaging by confocal. Gels were analyzed by z-stack imaging using a Nikon A1 Confocal Microscope with a 40× water objective (405 nm blue channel laser, 488 nm green channel laser, 561 nm red channel laser). Image processing was done using NIS Elements, and Imaris Cell Counting software was used to quantify live-dead percentages.

[1] = as above; format: cell-based, mouse; details: mouse, RAW 264.7 cells cultured on peptide hydrogel (2-D culture); RAW macrophages on 1 wt. % hydrogel, after three days; read-out: cell survival
Description: as §1, §2, §3

iNOS = biological target: T1, iNOS (Mus musculus, UniProt P29477); test: iNOS knockdown in vitro Greiss assay; format: cell-based
T1 construct: endogenous in cells; host or cells: RAW 264.7 murine macrophages stimulated with LPS and IFN-gamma
T1 sequence (P29477 1-1144): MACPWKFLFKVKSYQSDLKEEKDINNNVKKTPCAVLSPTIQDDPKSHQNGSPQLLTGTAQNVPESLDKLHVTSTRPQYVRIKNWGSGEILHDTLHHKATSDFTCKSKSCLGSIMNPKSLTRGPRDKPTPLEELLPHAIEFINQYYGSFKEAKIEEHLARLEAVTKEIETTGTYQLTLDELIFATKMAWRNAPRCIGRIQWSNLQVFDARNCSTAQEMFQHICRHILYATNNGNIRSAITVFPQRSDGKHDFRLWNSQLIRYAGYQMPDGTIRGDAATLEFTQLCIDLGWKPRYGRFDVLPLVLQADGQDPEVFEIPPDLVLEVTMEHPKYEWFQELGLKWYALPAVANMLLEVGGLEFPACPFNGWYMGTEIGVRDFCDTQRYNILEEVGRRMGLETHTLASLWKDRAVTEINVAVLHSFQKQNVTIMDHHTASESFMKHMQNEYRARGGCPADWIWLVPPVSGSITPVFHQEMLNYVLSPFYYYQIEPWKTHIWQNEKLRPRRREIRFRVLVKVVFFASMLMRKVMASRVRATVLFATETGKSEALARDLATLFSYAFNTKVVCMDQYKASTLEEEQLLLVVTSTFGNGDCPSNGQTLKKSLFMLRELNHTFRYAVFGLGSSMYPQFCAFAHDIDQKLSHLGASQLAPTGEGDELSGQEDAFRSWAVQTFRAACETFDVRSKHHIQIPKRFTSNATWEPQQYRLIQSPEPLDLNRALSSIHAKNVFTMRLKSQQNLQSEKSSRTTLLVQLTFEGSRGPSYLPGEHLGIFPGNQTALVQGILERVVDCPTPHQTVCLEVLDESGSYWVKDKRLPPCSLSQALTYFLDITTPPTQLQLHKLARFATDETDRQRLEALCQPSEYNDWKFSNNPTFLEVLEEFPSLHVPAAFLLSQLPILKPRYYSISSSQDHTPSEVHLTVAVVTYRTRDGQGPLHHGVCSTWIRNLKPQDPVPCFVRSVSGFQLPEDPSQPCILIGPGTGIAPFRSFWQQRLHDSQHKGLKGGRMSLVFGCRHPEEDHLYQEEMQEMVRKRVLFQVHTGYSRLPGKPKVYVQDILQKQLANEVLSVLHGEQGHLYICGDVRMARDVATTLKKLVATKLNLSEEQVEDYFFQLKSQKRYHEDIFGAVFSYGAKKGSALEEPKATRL
Description: iNOS knockdown in vitro Greiss assay. To evaluate the iNOS knockdown efficacy of various materials, the following procedure was used to test % iNOS inhibition of RAW 264.7 cells stimulated with Lipopolysaccharide (LPS, Thermo Fisher Scientific, Rockford, IL) and recombinant mouse IFN-7 (Biolegend, San Diego, CA). RAW macrophages were prepared at a stock concentration of 2.5×10^6 cells/mL, and plated at 2.5×10^5 cells per well in 24-well plates. For samples testing the efficacy of 2-D surface cell culture, 200 μL of MDP hydrogels was applied to evenly coat the surface of each well before addition of cells. Each experimental condition was performed in triplicate. The following controls were included in every experiment, 1) media alone, 2) stimulated cells alone, and 3) unstimulated cells alone. To each well, stimulation media or normal media was then added based on experimental requirement. Stimulation media was prepared with LPS (final concentration 1 μg/mL) and IFN-7 (final concentration 100 U/mL). For samples testing material efficacy in solution (e.g. free L-NIL), after 6 hrs of incubation at 37° C. with 5% CO2 the desired concentration of inhibitor was added to achieve a range of concentrations between 1 μM and 1 mM.
In all cases after 24 hours from time of stimulation, samples of cell media were collected from each well after mixing media by pipetting before collection. Media samples were placed into a 96-well plate and centrifuged at 5000 rpm for 10 min. Supernatants were removed and placed in a new clear 96-well plate, and samples were immediately analyzed using a colorimetric Greiss Assay (Cayman Chemical, Ann Arbor, MI) to assess nitrite levels (Bryan & Grisham, 2007). Color was allowed to develop for 10 min following addition of Greiss reagents, and absorbance was read at 540 nm on a plate reader. Percent iNOS inhibition for each sample was calculated by first subtracting the absorbance of the media-only baseline, and then converting to a percent of maximum nitrite signal as determined by the internal standard of stimulated cells alone.

CC(=N)NCCCC[C@H](NC(=O)[C@H](CCCCNC(C)=N)NC(=O)[C@H](CC(C)C)NC(=O)[C@H](CO)NC(=O)[C@H](CC(C)C)NC(=O)[C@H](CO)NC(=O)[C@H](CC(C)C)NC(=O)[C@H](CO)NC(=O)[C@H](CC(C)C)NC(=O)[C@H](CO)NC(=O)[C@H](CC(C)C)NC(=O)[C@H](CO)NC(=O)[C@H](CC(C)C)NC(=O)[C@H](CO)NC(=O)[C@H](CCCCNC(C)=N)NC(=O)[C@H](CCCCNC(C)=N)NC(C)=O)C(N)=O [L-NIL-MDP] (Ac-[X1][X1]SLSLSLSLSLSL[X1][X1]-NH2)
cell attachment, survival and proliferation (in words) (RAW 264.7 cells): highest degrees of cell attachment and proliferation
viability at 72 h, 1 wt. % [1]: ~95%
free L-NIL concentration giving a comparable level of iNOS inhibition (iNOS; hydrogel surface culture compared with free L-NIL in solution): ~100 µM
iNOS inhibition (in words) (iNOS; stimulated RAW macrophages cultured on the hydrogel): greatest degree of iNOS inhibition
